{"source": "ChEMBL document CHEMBL2176881", "about": "“Development of N-[4-[6-(isopropylamino)pyrimidin-4-yl]-1,3-thiazol-2-yl]-N-methyl-4-[11C]methylbenzamide for positron emission tomography imaging of metabotropic glutamate 1 receptor in monkey brain” (J Med Chem, 2012)", "key": {"Mus musculus": {"species_on_record": "Mus musculus", "assay": "Biodistribution in ddY mouse large intestine at 4.8 MBq/0.1 mL after 30 mins by gamma counting", "format": "ADME, organism-based", "settings": "in vivo, 0.5 h; call rule not given here"}, "[1]": {"assay": "Drug uptake in monkey caudate at 185 to 220 MBq, iv after 10 mins by PET analysis", "format": "ADME, organism-based, Macaca mulatta, Caudate nucleus", "settings": "rhesus monkey, in vivo"}, "[2]": {"assay": "Drug uptake in monkey pons at 185 to 220 MBq, iv after 10 to 60 mins by PET analysis", "format": "ADME, organism-based, Macaca mulatta", "settings": "rhesus monkey, in vivo"}, "Brain [3]": {"tested_on": "Brain", "assay": "Biodistribution in ddY mouse brain at 4.8 MBq/0.1 mL after 1 min by gamma counting", "format": "ADME, organism-based", "settings": "in vivo"}, "Brain [4]": {"tested_on": "Brain", "assay": "Drug uptake in monkey brain at 185 to 220 MBq, iv after 10 to 60 mins by PET analysis in presence of unlabeled 4-(6-chloropyrimidin-4-yl)-N-methylthiazol-2-amine", "format": "ADME, organism-based, Macaca mulatta", "settings": "rhesus monkey, in vivo"}}, "data": [{"compound": "CC(C)Nc1cc(-c2csc(N(C)C(=O)c3ccc([14CH3])cc3)n2)ncn1", "values": [{"measurement": "Drug uptake", "setting": "Mus musculus", "result": 2.32, "unit": "% ID/g"}, {"measurement": "Drug uptake", "setting": "[1]", "result": "Active"}, {"measurement": "Drug uptake", "setting": "[2]", "result": "Active"}, {"measurement": "Drug uptake", "setting": "Brain [3]", "result": 2.19, "unit": "% ID/g"}, {"measurement": "Drug uptake", "setting": "Brain [4]", "result": "Not Active"}]}]}
